Tested on: EGFRvIII CARTs
Test: Cytokine production of EGFRvIII CARTs stimulated by ligand-presenting MSRs (multiplex cytokine analysis)
Assay type: cell-based
Details: lipid-coated MSRs, 1% PE-biotin in the lipid coating; FIG. 8
Description: MSRs with surface-immobilized ligands were prepared as described in Cheung, A. S., et al., Scaffolds that mimic antigen-presenting cells enable ex vivo expansion of primary T cells. Nature Biotechnology, 36(2), 160-169.
Briefly, liposomes primarily composed of POPC with 1 mol % PE-biotin were formed using a thin film rehydration method and extrusion through a 100 nm polycarbonate membrane. Hydroxyl functionalized MSRs were incubated with the liposomes to allow the formation of a supported lipid bilayer on the MSR surface (FIG. 6). To functionalize the MSRs with CD3 and CD28 agonistic antibodies, MSRs were washed several times with PBS, incubated with streptavidin, and then tethered with biotinylated CD3 and CD28 antibodies. For MSR-immobilization of EGFRvIII CAR-binding peptides, a biotinylated EGFRvIII CAR-binding peptide was used (FIG. 7). For BCMA CART stimulation, recombinant BCMAFc protein was biotinylated using biotin-NHS and similarly coupled to the MSR surface.
After incubation with the desired ligands, MSRs were washed several times with PBS and resuspended in culture medium at various concentrations and incubated with T cells. T cell proliferation was read out using CFSE labeling of the T cells and assessing dye dilution by flow cytometry. Cytokine production was assessed using a multiplex cytokine analysis method (Mesoscale […] V-Plex).
EGFRvIII CARTs produced interferon gamma and IL-2 in response to EGFRvIII CAR-binding peptide bound to the surface of the MSRs, while free EGFRvIII CAR-binding peptide in solution, a non-stimulating peptide (OVA) presented on the MSRs, or undecorated MSRs gave no response from the CARTs (FIG. 8). In another experiment, the proliferation of EGFRvIII CARTs were monitored in response to various stimuli using cell counting (FIG. 9).

In the case of “EGFRvIII CAR-binding peptide bound to the surface of the MSRs: biotinylated EGFRvIII CAR-binding peptide (LEEKKGNYVVTDH, SEQ ID NO: 674) immobilized via streptavidin on lipid-coated MSRs”, the IL-2 production is reported as “produced” and the interferon gamma production is reported as “produced”.
For “free EGFRvIII CAR-binding peptide: EGFRvIII CAR-binding peptide (LEEKKGNYVVTDH (SEQ ID NO: 674)) free in solution”, the IL-2 production was “no response” and the interferon gamma production was “no response”.
